Measured values: patent publication US20210198277A1, “AMINE-SUBSTITUTED ARYL OR HETEROARYL COMPOUNDS” (Epizyme, Inc., priority 2016, published 2021)
Where two headings read alike, the source gives them in different places.

Legend:
[1] = target: T1, human EHMT2 913-1193 (Homo sapiens, UniProt Q96KQ7); test: EHMT2 enzyme assay on histone peptide substrate (EHMT2 PEP); type: biochemical
T1 construct: recombinant purified human EHMT2 913-1193, Viva; purchased Viva
T1 sequence (Q96KQ7 913-1193): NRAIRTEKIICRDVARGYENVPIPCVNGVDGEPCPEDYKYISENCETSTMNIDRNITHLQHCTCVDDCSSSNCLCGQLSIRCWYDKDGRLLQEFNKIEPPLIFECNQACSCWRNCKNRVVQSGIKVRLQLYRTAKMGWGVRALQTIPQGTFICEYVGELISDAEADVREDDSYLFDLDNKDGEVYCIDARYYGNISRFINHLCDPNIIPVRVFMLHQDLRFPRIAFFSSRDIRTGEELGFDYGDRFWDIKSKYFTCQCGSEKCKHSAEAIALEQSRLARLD
Procedure, shortened: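 Radiometric methyltransferase read-out: ^3H-methyl transfer from ^3H-SAM onto biotinylated histone peptide, captured on streptavidin Flashplates after 60 min reaction at room temperature. Enzyme 0.031 nM, preincubated 30 min with inhibitor; buffer 20 mM Bicine pH 7.5 with 1 mM TCEP; top compound concentration 50 μM final, 2% DMSO.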

[2] = target: T2, EHMT1 (Homo sapiens, UniProt Q9H9B1); test: EHMT1 enzyme assay on peptide substrate (EHMT1 PEP); type: biochemical
T2 sequence (Q9H9B1 1-1298): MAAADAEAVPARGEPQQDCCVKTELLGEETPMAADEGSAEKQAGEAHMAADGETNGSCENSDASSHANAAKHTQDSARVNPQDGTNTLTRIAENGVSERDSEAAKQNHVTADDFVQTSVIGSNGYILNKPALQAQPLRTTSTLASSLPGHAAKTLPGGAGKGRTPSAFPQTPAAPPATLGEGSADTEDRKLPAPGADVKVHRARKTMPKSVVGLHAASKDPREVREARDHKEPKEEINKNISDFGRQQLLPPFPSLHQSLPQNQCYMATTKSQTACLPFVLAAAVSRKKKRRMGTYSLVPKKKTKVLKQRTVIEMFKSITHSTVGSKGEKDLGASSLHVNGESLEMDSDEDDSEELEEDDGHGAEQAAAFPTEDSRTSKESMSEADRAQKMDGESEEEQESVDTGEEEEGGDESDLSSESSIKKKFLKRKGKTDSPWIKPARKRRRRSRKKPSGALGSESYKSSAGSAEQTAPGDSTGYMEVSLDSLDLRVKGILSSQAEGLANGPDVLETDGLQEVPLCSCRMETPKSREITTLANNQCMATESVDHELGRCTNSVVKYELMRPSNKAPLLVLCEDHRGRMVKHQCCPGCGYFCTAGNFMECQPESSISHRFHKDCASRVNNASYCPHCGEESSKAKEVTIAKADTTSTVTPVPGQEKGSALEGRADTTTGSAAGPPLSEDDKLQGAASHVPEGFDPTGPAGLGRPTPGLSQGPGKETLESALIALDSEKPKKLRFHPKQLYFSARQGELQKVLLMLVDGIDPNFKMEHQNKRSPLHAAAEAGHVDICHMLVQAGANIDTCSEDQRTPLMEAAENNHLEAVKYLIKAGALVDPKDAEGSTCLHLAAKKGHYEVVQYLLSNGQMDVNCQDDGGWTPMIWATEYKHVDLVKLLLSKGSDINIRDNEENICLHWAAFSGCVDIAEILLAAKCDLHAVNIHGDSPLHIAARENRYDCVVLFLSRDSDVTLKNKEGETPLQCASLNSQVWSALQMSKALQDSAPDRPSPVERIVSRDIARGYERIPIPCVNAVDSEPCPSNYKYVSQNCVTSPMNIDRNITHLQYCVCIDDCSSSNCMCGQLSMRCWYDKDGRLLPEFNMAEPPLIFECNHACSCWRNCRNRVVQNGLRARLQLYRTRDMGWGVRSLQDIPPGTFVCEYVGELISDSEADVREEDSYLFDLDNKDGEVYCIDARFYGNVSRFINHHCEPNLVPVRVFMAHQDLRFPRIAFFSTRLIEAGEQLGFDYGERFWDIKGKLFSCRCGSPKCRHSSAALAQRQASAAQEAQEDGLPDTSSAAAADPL

[3] = Table III, read-out: EHMT2 PEP (IC50 μM)
[4] = Table III, read-out: EHMT1 PEP (IC50 μM)

SMILES	IC50 [1, 3]	IC50 [2, 4]	IC50 ([1]; Table VI, read-out: EHMT2 PEP IC50)	IC50 ([2]; Table VI, read-out: EHMT1 PEP IC50)
CNc1cc(C)nc(Nc2ccc(OC)c(O[C@H]3C[C@H](N(C)C)C3)c2)n1 (single isomer, unassigned) [Compound 329, N^2-(3-((1r,3r)-3-(dimethylamino)cyclobutoxy)-4-methoxyphenyl)-N^4,6-dimethylpyrimidine-2,4-diamine]	1 to 10 µM	1 to 10 µM		
COc1ccc(Nc2ccc3cnn(C)c3n2)cc1OCCCN1CCCC1 [Compound 257, N-(4-methoxy-3-(3-(pyrrolidin-1-yl)propoxy)phenyl)-1-methyl-1H-pyrazolo[3,4-b]pyridin-6-amine]	> 10 µM	> 10 µM		
COc1ccc(Nc2cc3c(cn2)ncn3C)cc1OCCCN1CCCC1 [Compound 258, N-(4-methoxy-3-(3-(pyrrolidin-1-yl)propoxy)phenyl)-1-methyl-1H-imidazo[4,5-c]pyridin-6-amine]	> 10 µM	> 10 µM		
COc1ccc(Nc2nccc(NCC3CCOCC3)n2)cc1OC1CCC2(CC1)CCN(C)C2 (stereo not drawn) [Compound 259, N^2-(4-methoxy-3-((2-methyl-2-azaspiro[4.5]decan-8-yl)oxy)phenyl)-N^4-((tetrahydro-2H-pyran-4-yl)methyl)pyrimidine-2,4-diamine]	> 10 µM	> 10 µM		
COc1ccc(Nc2nccc(NCC3CCOCC3)n2)cc1OC1CCC2(CC1)CN(C)C2 [Compound 260, N^2-(4-methoxy-3-((2-methyl-2-azaspiro[3.5]nonan-7-yl)oxy)phenyl)-N^4-((tetrahydro-2H-pyran-4-yl)methyl)pyrimidine-2,4-diamine]	> 10 µM	> 10 µM		
CNc1cnnc(Nc2cc(OCCCN3CCCC3)c(OC)cn2)c1 [Compound 322, N^3-(5-methoxy-4-(3-(pyrrolidin-1-yl)propoxy)pyridin-2-yl)-N^5-methylpyridazine-3,5-diamine]	< 0.1 µM	< 0.1 µM		
CNc1cc(Nc2cc(OCCCN3CCCC3)c(OC)cn2)cnn1 [Compound 323, N^5-(5-methoxy-4-(3-(pyrrolidin-1-yl)propoxy)pyridin-2-yl)-N^3-methylpyridazine-3,5-diamine]	> 10 µM	> 10 µM		
CNc1cc(Nc2cc(OCCCN3CCCC3)c(OC)cn2)ncn1 [Compound 324, N^4-(5-methoxy-4-(3-(pyrrolidin-1-yl)propoxy)pyridin-2-yl)-N^6-methylpyrimidine-4,6-diamine]	1 to 10 µM	1 to 10 µM		
CNc1cc(Nc2cc(OCCCN3CCCC3)c(OC)cn2)nc(C)n1 [Compound 325, N^4-(5-methoxy-4-(3-(pyrrolidin-1-yl)propoxy)pyridin-2-yl)-N^6,2-dimethylpyrimidine-4,6-diamine]	1 to 10 µM	1 to 10 µM		
COc1cnc(Nc2nc(C)nc3[nH]ccc23)cc1OCCCN1CCCC1 [Compound 326, N-(5-methoxy-4-(3-(pyrrolidin-1-yl)propoxy)pyridin-2-yl)-2-methyl-7H-pyrrolo[2,3-d]pyrimidin-4-amine]	0.1 to 1 µM	0.1 to 1 µM		
CNc1nc(Nc2ccc(OC)c(OCCCN3CCCC3)c2)nc2c1CCC2 [Compound 328, N^2-(4-methoxy-3-(3-(pyrrolidin-1-yl)propoxy)phenyl)-N^4-methyl-6,7-dihydro-5H-cyclopenta[d]pyrimidine-2,4-diamine]	0.1 to 1 µM	0.1 to 1 µM		
CNc1cc(C)nc(Nc2ccc(OC)c(OC[C@H]3C[C@H](N(C)C)C3)c2)n1 [Compound 330]	> 10 µM	1 to 10 µM		
CNc1cc(C)nc(Nc2ccc(OC)c(O[C@H]3C[C@H](CN(C)C)C3)c2)n1 [Compound 331, N^2-(3-((1r,3r)-3-((dimethylamino)methyl)cyclobutoxy)-4-methoxyphenyl)-N^4,6-dimethylpyrimidine-2,4-diamine]	> 10 µM	> 10 µM		
CNc1cc(C)nc(Nc2cnc(OC)c(OCCCN3CCCC3)c2)n1 [Compound 332, N^2-(6-methoxy-5-(3-(pyrrolidin-1-yl)propoxy)pyridin-3-yl)-N^4,6-dimethylpyrimidine-2,4-diamine]	< 0.1 µM	< 0.1 µM		
CCn1nc(Nc2nccc3[nH]ccc23)cc1COCCN1CCCC1 [Compound 333]	1 to 10 µM	1 to 10 µM		
COc1cnc(Nc2ccnc3[nH]ccc23)cc1OCCCN1CCCC1 [Compound 335, N-(5-methoxy-4-(3-(pyrrolidin-1-yl)propoxy)pyridine-2-yl)-1H-pyrrolo[2,3-b]pyridin-4-amine]	0.1 to 1 µM	0.1 to 1 µM		
COc1cnc(Nc2cc(C)nc3[nH]ccc23)cc1OCCCN1CCCC1 [Compound 336, N-(5-methoxy-4-(3-(pyrrolidin-1-yl)propoxy)pyridin-2-yl)-6-methyl-1H-pyrrolo[2,3-b]pyridin-4-amine]	0.1 to 1 µM	0.1 to 1 µM		
COc1ccc(Nc2nc(C)c(F)c(NC(C)C)n2)cc1OCCCN1CCCC1 [Compound 337]	1 to 10 µM	0.1 to 1 µM		
COc1ccc(Nc2nccc(-n3nc(C)cc3C)n2)cc1OCCCN1CCCC1 [Compound 338]	> 10 µM	> 10 µM		
CNCc1cnc(Nc2ccc(OC)c(OCCCN3CCCC3)c2)nc1 [Compound 339]	> 10 µM	> 10 µM		
COc1ccc(Nc2ccnc(NCC3CCN(C(C)=O)CC3)n2)cc1OCCCN1CCCC1 [Compound 340]	0.1 to 1 µM	0.1 to 1 µM		
COc1ccc(Nc2ccc3cnn(C)c3c2)cc1OCCCN1CCCC1 [Compound 341]	> 10 µM	> 10 µM		

Other lines, results leading:

IC50 [1, 3]	IC50 [2, 4]	IC50 ([1]; Table VI, read-out: EHMT2 PEP IC50)	IC50 ([2]; Table VI, read-out: EHMT1 PEP IC50)	SMILES
> 10 µM	> 10 µM			COc1ccc(Nc2ccc3ncn(C)c3n2)cc1OCCCN1CCCC1 [Compound 342]
> 10 µM	> 10 µM			COc1ccc(Nc2ncc3ncn(C)c3n2)cc1OCCCN1CCCC1 [Compound 343]
> 10 µM	> 10 µM			COc1ccc(Nc2cccc3ncnn23)cc1OCCCN1CCCC1 [Compound 344]
> 10 µM	> 10 µM			COc1ccc(Nc2ccc3nn(C)cc3c2)cc1OCCCN1CCCC1 [Compound 345]
> 10 µM	> 10 µM			COc1ccc(Nc2cccc3cn(C)nc23)cc1OCCCN1CCCC1 [Compound 346]
1 to 10 µM	1 to 10 µM			COc1ccc(Nc2ccc3ncc(C)n3n2)cc1OCCCN1CCCC1 [Compound 347]
> 10 µM	> 10 µM			COc1ccc(Nc2nccc(-c3cnn(C)c3)n2)cc1OCCCN1CCCC1 [Compound 348]
1 to 10 µM	1 to 10 µM			COc1ccc(Nc2nccc(Nc3cccc(F)c3)n2)cc1OCCCN1CCCC1 [Compound 349]
0.1 to 1 µM	0.1 to 1 µM			COc1ccc(Nc2nccc(NCC3CCOCC3)n2)cc1NCCCN1CCCC1 [Compound 350]
> 10 µM	> 10 µM			COc1ccc(OCCCN2CCCC2)cc1Nc1nccc(NCC2CCOCC2)n1 [Compound 351]
> 10 µM	> 10 µM			COc1ccc(NCCCN2CCCC2)cc1Nc1nccc(NCC2CCOCC2)n1 [Compound 352]
0.1 to 1 µM	0.1 to 1 µM			CNc1ccnc(Nc2ccc(OC)c(OCCCN3CC[C@@H](F)C3)c2)n1 [Compound 353]
1 to 10 µM	0.1 to 1 µM			CNc1ccnc(Nc2ccc(OC)c(OCCCN3CC(F)C3)c2)n1 [Compound 354]
		1 to 10 µM	1 to 10 µM	CNc1cc2nccn2c(Nc2cc(OCCCN3CCCC3)c(OC)cn2)n1 [Compound 611]
